Measured values: US10173968B2, “Bishydrazone-based antifungal agents” (University of Kentucky Research Foundation, priority 2016, dated 2019)
Where “and” joins values, the source holds several entries; their conditions need not be identical. Equal values may be shown once. Read-outs that look alike come from different tables or passages of the source.

Legend:
C. albicans ATCC 2876 = assay: Antifungal MIC, CLSI M27-A3 microbroth dilution; assay type: cell-based, Candida albicans; details: Candida albicans, ATCC2876, C. albicans ATCC 2876, susceptible to FLC, ITC, and VOR, read-out: MIC
Description: (§1) In vitro MIC testing was performed according to the CLSI M27-A3 standard microbroth dilution methodology for the susceptibility testing of yeasts with minor modifications.

C. albicans ATCC 1003 = assay: Antifungal MIC, CLSI M27-A3 microbroth dilution; assay type: cell-based, Candida albicans; details: Candida albicans, ATCC1003, read-out: MIC
Description: as §1

C. albicans ATCC 2310 = assay: Antifungal MIC, CLSI M27-A3 microbroth dilution; assay type: cell-based, Candida albicans; details: Candida albicans, ATCC2310, C. albicans ATCC 2310, susceptible to FLC, ITC, and VOR, read-out: MIC
Description: as §1

C. albicans ATCC 64124 = assay: Antifungal MIC, CLSI M27-A3 microbroth dilution; assay type: cell-based, Candida albicans; details: Candida albicans, ATCC64124, C. albicans ATCC 64124, resistant to FLC, ITC, and VOR, read-out: MIC
Description: as §1

C. albicans ATCC 1237 = assay: Antifungal MIC, CLSI M27-A3 microbroth dilution; assay type: cell-based, Candida albicans; details: Candida albicans, ATCC1237, C. albicans ATCC 1237, resistant to FLC, ITC, and VOR, read-out: MIC
Description: as §1

C. albicans ATCC 10231 = assay: Antifungal MIC, CLSI M27-A3 microbroth dilution; assay type: cell-based, Candida albicans; details: Candida albicans, ATCC10231, C. albicans ATCC 10231, resistant to FLC, ITC, and VOR, read-out: MIC
Description: as §1

C. albicans ATCC 90819 = assay: Antifungal MIC, CLSI M27-A3 microbroth dilution; assay type: cell-based, Candida albicans; details: Candida albicans, ATCC90819, C. albicans ATCC 90819, resistant to FLC, ITC, and VOR, read-out: MIC
Description: as §1

P. aeruginosa ATCC 27853 = assay: Antibacterial MIC, double-dilution method; assay type: cell-based; details: Pseudomonas aeruginosa, ATCC27853
Description: (§2) MIC values were determined against a variety of Gram-positive (strains A-D) and Gram-negative (E-J) bacterial and mycobacterial (K) strains using the double-dilution method, as previously published. Preliminary screening was performed using 500 μM of each compound.

S. enterica ATCC 14028 = assay: Antibacterial MIC, double-dilution method; assay type: cell-based; details: Salmonella enterica, ATCC14028, strain J, Gram-negative, read-out: MIC
Description: as §2

MRSA = assay: Antibacterial MIC, double-dilution method; assay type: cell-based; details: Staphylococcus aureus, strain C, Gram-positive, read-out: MIC
Description: as §2

K. pneumoniae ATCC 27736 = assay: Antibacterial MIC, double-dilution method; assay type: cell-based; details: Klebsiella pneumoniae, ATCC27736
Description: as §2

B. subtilis 168 = assay: Antibacterial MIC, double-dilution method; assay type: cell-based; details: Bacillus subtilis, strain A, Gram-positive
Description: as §2

A. baumannii ATCC 19606 = assay: Antibacterial MIC, double-dilution method; assay type: cell-based; details: Acinetobacter baumannii, ATCC19606
Description: as §2

E. cloacae ATCC 13047 = assay: Antibacterial MIC, double-dilution method; assay type: cell-based; details: Enterobacter cloacae, ATCC13047
Description: as §2

E. coli MC1061 = assay: Antibacterial MIC, double-dilution method; assay type: cell-based; details: Escherichia coli, strain G, Gram-negative, read-out: MIC
Description: as §2

[1] = system: L. monocytogenes ATCC 19115; assay: Antibacterial MIC, double-dilution method; assay type: cell-based; details: Listeria monocytogenes, ATCC19115, strain B, Gram-positive, read-out: MIC
Description: as §2

VRE = assay: Antibacterial MIC, double-dilution method; assay type: cell-based; details: Enterococcus, strain D, Gram-positive, read-out: MIC
Description: as §2

M. smegmatis MC2-155 = assay: Antibacterial MIC, double-dilution method; assay type: cell-based; details: Mycolicibacterium smegmatis, MC2155, strain K, mycobacterial
Description: as §2

[2] = system: C. albicans strains (panel of seven); assay: Antifungal MIC, summary over the panel; assay type: cell-based, Candida albicans
Description: In vitro MIC testing was performed according to the CLSI M27-A3 standard microbroth dilution methodology for the susceptibility testing of yeasts with minor modifications. […] MIC values were read visually for all tested compounds, and the endpoint was determined as the minimum concentration of compound that yielded complete inhibition relative to growth control.

[3] = system: all bacterial strains tested; assay: Antibacterial MIC, summary over the panel; assay type: cell-based; details: read-out: MIC, span over all bacterial strains tested
Description: as §2

[4] = C. albicans ATCC 1003, converted from μg/mL
[5] = strain I, Gram-negative, converted from μM, read-out: MIC
[6] = strain I, Gram-negative, range 0.5 to 500 μM, read-out: MIC
[7] = strain F, Gram-negative, converted from μM, read-out: MIC
[8] = strain F, Gram-negative, range 0.5 to 500 μM, read-out: MIC
[9] = converted from μM, read-out: MIC
[10] = strain H, Gram-negative, range 0.5 to 500 μM, read-out: MIC
[11] = strain E, Gram-negative, range 0.5 to 500 μM, read-out: MIC
[12] = range 0.5 to 500 μM, read-out: MIC

Cl.N#Cc1ccc(N/N=C/c2ccc(-c3ccc(/C=N/NC(=N)N)cc3)cc2)cc1 [Compound 7Ae, (E)-2-((4′-((E and Z)-(2-(4-Cyanophenyl)hydrazono)methyl)-[1,1′-biphenyl]-4-yl)methylene)hydrazine-1-carboximidamide monohydrochloride]
melting point: 308 to 310 °C
MIC (C. albicans ATCC 2876; converted from μg/mL): 37.3 µM
MIC (C. albicans ATCC 2876): 15.6 µg/mL
MIC (C. albicans ATCC 1003; [4]): 18.7 µM
MIC (C. albicans ATCC 1003): 7.8 µg/mL
MIC (C. albicans ATCC 2310; converted from μg/mL): 37.3 µM
MIC (C. albicans ATCC 2310): 15.6 µg/mL
MIC (C. albicans ATCC 64124; converted from μg/mL): 74.9 µM
MIC (C. albicans ATCC 64124): 31.3 µg/mL
MIC (C. albicans ATCC 1237; converted from μg/mL): 37.3 µM
MIC (C. albicans ATCC 1237): 15.6 µg/mL
MIC (C. albicans ATCC 10231; converted from μg/mL): 37.3 µM
MIC (C. albicans ATCC 10231): 15.6 µg/mL
MIC (C. albicans ATCC 90819; converted from μg/mL): 37.3 µM
MIC (C. albicans ATCC 90819): 15.6 µg/mL
MIC (P. aeruginosa ATCC 27853; [5]): 13.1 to 26.1 µg/mL
MIC (P. aeruginosa ATCC 27853; [6]): 31.3 to 62.5 µM
MIC (S. enterica ATCC 14028; converted from μM): 6.5 µg/mL
MIC (S. enterica ATCC 14028; range 0.5 to 500 μM): 15.6 µM
MIC (MRSA; converted from μM): 6.5 µg/mL
MIC (MRSA; range 0.5 to 500 μM): 15.6 µM
MIC (K. pneumoniae ATCC 27736): 15.6 µM to 31.3 µM and 6.5 µg/mL to 13.1 µg/mL
MIC (B. subtilis 168; converted from μM): 13.1 µg/mL
MIC (B. subtilis 168; range 0.5 to 500 μM): 31.3 µM
MIC (A. baumannii ATCC 19606): 15.6 µM to 31.3 µM and 6.5 µg/mL to 13.1 µg/mL
MIC (E. cloacae ATCC 13047; [7]): 209 µg/mL
MIC (E. cloacae ATCC 13047; [8]): 500 µM
MIC (E. coli MC1061; converted from μM): 26.1 to 52.2 µg/mL
MIC (E. coli MC1061; range 0.5 to 500 μM): 62.5 to 125 µM
MIC ([1]; converted from μM): 3.3 µg/mL
MIC ([1]; range 0.5 to 500 μM): 7.8 µM
MIC (VRE; converted from μM): 0.8 to 1.6 µg/mL
MIC (VRE; range 0.5 to 500 μM): 2 to 3.9 µM
MIC (M. smegmatis MC2-155; [9]): 6.5 to 13.1 µg/mL
MIC (M. smegmatis MC2-155; range 0.5 to 500 μM): 15.6 to 31.3 µM
MIC ([2]; Candida albicans, all, most or majority of the fungal strains, read-out: MIC, span over C. albicans strains): 7.8 to 15.6 µg/mL

CC1(C)S[C@@H]2[C@H](NC(=O)[C@H](N)c3ccccc3)C(=O)N2[C@H]1C(=O)O [AMP, ampicillin, reference compound]
MIC [3]: ≥ 250 µM
MIC (P. aeruginosa ATCC 27853): > 92.8 µg/mL
MIC (P. aeruginosa ATCC 27853; [6]): > 250 µM
MIC (S. enterica ATCC 14028; converted from μM): 92.8 µg/mL
MIC (S. enterica ATCC 14028; range 0.5 to 500 μM): 250 µM
MIC (MRSA; converted from μM): 92.8 µg/mL
MIC (MRSA; range 0.5 to 500 μM): 250 µM
MIC (K. pneumoniae ATCC 27736): > 92.8 µg/mL
MIC (K. pneumoniae ATCC 27736; [10]): > 250 µM
MIC (B. subtilis 168; converted from μM): > 92.8 µg/mL
MIC (B. subtilis 168; range 0.5 to 500 μM): > 250 µM
MIC (A. baumannii ATCC 19606): > 92.8 µg/mL
MIC (A. baumannii ATCC 19606; [11]): > 250 µM
MIC (E. cloacae ATCC 13047): > 92.8 µg/mL
MIC (E. cloacae ATCC 13047; [8]): > 250 µM
MIC (E. coli MC1061; converted from μM): > 92.8 µg/mL
MIC (E. coli MC1061; range 0.5 to 500 μM): > 250 µM
MIC ([1]; converted from μM): 92.8 µg/mL
MIC ([1]; range 0.5 to 500 μM): 250 µM
MIC (VRE; converted from μM): 92.8 µg/mL
MIC (VRE; range 0.5 to 500 μM): 250 µM
MIC (M. smegmatis MC2-155; [9]): > 92.8 µg/mL
MIC (M. smegmatis MC2-155; [12]): > 250 µM

Cl.N=C(N)N/N=C/c1ccc(-c2ccc(/C=N/Nc3ccccc3Br)cc2)cc1 [Compound 7Ab, (E)-2-((4′-((E and Z)-(2-(2-Bromophenyl)hydrazono)methyl)-[1,1′-biphenyl]-4-yl)methylene)hydrazine-1-carboximidamide monohydrochloride]
melting point: > 380 °C
MIC (C. albicans ATCC 2876; converted from μg/mL): 8.3 µM
MIC (C. albicans ATCC 2876): 3.9 µg/mL
MIC (C. albicans ATCC 1003; [4]): 4.1 µM
MIC (C. albicans ATCC 1003): 2 µg/mL
MIC (C. albicans ATCC 2310; converted from μg/mL): 8.3 µM
MIC (C. albicans ATCC 2310): 3.9 µg/mL
MIC (C. albicans ATCC 64124; converted from μg/mL): 8.3 µM
MIC (C. albicans ATCC 64124): 3.9 µg/mL
MIC (C. albicans ATCC 1237; converted from μg/mL): 8.3 µM
MIC (C. albicans ATCC 1237): 3.9 µg/mL
MIC (C. albicans ATCC 10231; converted from μg/mL): 4.1 µM
MIC (C. albicans ATCC 10231): 2 µg/mL
MIC (C. albicans ATCC 90819; converted from μg/mL): 8.3 µM
MIC (C. albicans ATCC 90819): 3.9 µg/mL
MIC (P. aeruginosa ATCC 27853; [5]): > 235 µg/mL
MIC (P. aeruginosa ATCC 27853; [6]): > 500 µM
MIC (S. enterica ATCC 14028; converted from μM): > 235 µg/mL
MIC (S. enterica ATCC 14028; range 0.5 to 500 μM): > 500 µM
MIC (MRSA; converted from μM): 0.9 µg/mL
MIC (MRSA; range 0.5 to 500 μM): 2 µM
MIC (K. pneumoniae ATCC 27736; strain H, Gram-negative, converted from μM, read-out: MIC): > 235 µg/mL
MIC (K. pneumoniae ATCC 27736; [10]): > 500 µM
MIC (B. subtilis 168; converted from μM): > 235 µg/mL
MIC (B. subtilis 168; range 0.5 to 500 μM): > 500 µM
MIC (A. baumannii ATCC 19606; strain E, Gram-negative, converted from μM, read-out: MIC): > 235 µg/mL
MIC (A. baumannii ATCC 19606; [11]): > 500 µM
MIC (E. cloacae ATCC 13047; [7]): > 235 µg/mL
MIC (E. cloacae ATCC 13047; [8]): > 500 µM
MIC (E. coli MC1061; converted from μM): > 235 µg/mL
MIC (E. coli MC1061; range 0.5 to 500 μM): > 500 µM
MIC ([1]; converted from μM): 0.9 µg/mL
MIC ([1]; range 0.5 to 500 μM): 2 µM
MIC (VRE; converted from μM): 0.9 µg/mL
MIC (VRE; range 0.5 to 500 μM): 2 µM
MIC (M. smegmatis MC2-155; [9]): 1.8 µg/mL
MIC (M. smegmatis MC2-155; [12]): 3.9 µM
antifungal activity in words ([2]; against all fungal strains tested): excellent antifungal activities
